Test results published in patent EP4818172A1, “ASCORBIC ACID DERIVATIVES AND COSMETIC CONTAINING SAME” (Seiwa Kasei Co., Ltd., priority 2023, dated 2025).

Legend:
[1] = Stability test -1: residual rate of 1% aqueous solutions at pH 3 to 9 on storage; type: physicochemical; conditions: for Residual Rate After 2 weeks / Residual Rate After 4 weeks: 1% aqueous solution
[2] = tested on: Normal human dermal fibroblasts (NHDF); test: Hyaluronic acid production promoting effect (ELISA of supernatant); type: cell-based; conditions: sample at 10 mM or less in serum-free D-MEM, cultured 48 hours, % of control group (100%), N=3
Experimental: Normal human dermal fibroblasts (NHDF) were prepared in D-MEM containing 5% (v/v) fetal bovine serum to a cell density of 2.5 × 10^4 cells/well, and then pre-incubated on a 96-well plate for 24 hours. After removing the medium, samples prepared in serum-free D-MEM were added to each well and cultured for 48 hours. After the culture was completed, the amount of hyaluronic acid in the supernatant was quantified by ELISA. Measurements were performed in triplicate (N=3).
(§1) The amount of hyaluronic acid produced when the sample was measured at a concentration of 10 mM or less was compared with that of the control group, and the results (% values when the control group is set to 100%) are shown in Tables 18 to 20 based on the following criteria. • <100%: ± • 100-120%: + • 120%<: ++ [Table 18]

[3] = Stability test -1: odor and coloration scored by 10 panelists; type: physicochemical; conditions: Test Example 1, aqueous solution, total score of 10 panelists
Experimental: (§2) For each of the samples of Synthesis Examples 1 to 6, 1% aqueous solutions were adjusted to pH 3, 5, 7, 8, and 9 with a dilute potassium hydroxide aqueous solution, and then placed in 50 mL screw tubes and • 2: Color changes compared to immediately after preparation. • 1: Strongly colored compared to immediately after preparation. Based on the results of the above evaluation, the following classification was made: • ○: Total score of 10 panelists is 25 or more • △: Total score of 10 panelists is 16-24 • ×: The total score of 10 panelists is 15 or less [Table 10]

[4] = tested on: Normal human dermal fibroblasts; test: Collagen production promoting effect (ELISA of free collagen in supernatant); type: cell-based; conditions: sample at 10 mM or less, cultured 48 hours, % of control group (100%), N=3
Experimental: Normal human dermal fibroblasts were prepared in D-MEM containing 5% (v/v) fetal bovine serum to a cell density of 2.5 × 10^4 cell s /well, and then pre-incubated for 24 hours on a 96-well plate. After removing the medium, samples prepared to a predetermined concentration in D-MEM containing 5% (v/v) fetal bovine serum were added to each well and cultured for 48 hours. After the culture was completed, the amount of free collagen in the supernatant was quantified by ELISA. Measurements were performed in triplicate (N=3).
as §1, with “collagen” for “hyaluronic acid”, “was” for “is”, “Table 17” for “Tables 18 to 20”, “100-140%:” for “100-120%:”, “140%<:” for “120%<:”, “17]” for “18]”

[5] = Stability test -2: residual rate in cream of pH 7 or 9 stored at 50°C; type: physicochemical; conditions: cream with 4.0 W/W% derivative
Experimental: (§3) For each of the samples of Synthesis Examples 9 to 32, (a) and (b) shown in Table 12 were each heated and mixed. After cooling, (c) shown in Table 12 was added to prepare a cream with a pH of 7 or 9. The sample was stored at 50°C for 4 weeks, and the residual rate was determined in the same manner as in Test Example 1 and evaluated according to the criteria described below. The odor and coloration were also evaluated according to the same method and criteria as in Test Example 1. The results regarding the residual rate are shown in Tables 13 and 14, and the results regarding the odor and coloration are shown in Tables 15 and 16.
• ⊚: 95% or more • ○: 85% or more, less than 95% • ×: Less than 85% [Table 12]

[6] = Stability test -2: odor and coloration of cream stored at 50°C; type: physicochemical; conditions: Test Example 2, cream stored at 50°C, total score of 10 panelists
Experimental: as §2, §3

Molecule | Residual Rate After 2 weeks ([5]; pH7, stored at 50°C) | Residual Rate After 4 weeks ([5]; pH7, stored at 50°C) | Residual Rate After 2 weeks ([5]; pH9, stored at 50°C) | Residual Rate After 4 weeks ([5]; pH9, stored at 50°C) | Odor After 4 weeks [6] | Hyaluronic acid production-promoting effect [2] | Collagen production-promoting effect [4] | Coloration After 2 weeks [6] | Odor After 2 weeks [6] | Coloration After 4 weeks [6] | other results
O=C1O[C@H]([C@@H](O)CO)C(O)=C1O [Ascorbic acid] | – | – | – | – | – | ± (<100%) | – | – | – | – | Residual Rate After 2 weeks ([1]; pH3, stored at 50°C): ○; Residual Rate After 4 weeks ([1]; pH3, stored at 50°C): Δ; Residual Rate After 2 weeks ([1]; pH5, stored at 50°C): ○; Residual Rate After 4 weeks ([1]; pH5, stored at 50°C): ×; Residual Rate After 2 weeks ([1]; pH7, stored at 50°C): ×; Residual Rate After 4 weeks ([1]; pH7, stored at 50°C): ×; Residual Rate After 2 weeks ([1]; pH8, stored at 50°C): ×; Residual Rate After 4 weeks ([1]; pH8, stored at 50°C): ×; Residual Rate After 2 weeks ([1]; pH9, stored at 50°C): ×; Residual Rate After 4 weeks ([1]; pH9, stored at 50°C): ×; residual rate ([1]; Test Example 1, pH 7 to 9, stored at 50°C, after two weeks): less than 30%; Coloration After 2 weeks [3]: Δ; Odor After 2 weeks [3]: Δ; Coloration After 4 weeks [3]: × (The total score of 10 panelists is 15 or less); Odor After 4 weeks [3]: × (The total score of 10 panelists is 15 or less)
CCCCCCCCCCCCCCCC(=O)OCC(OC(=O)CCCCCCCCCCCCCCC)C1OC(=O)C2=C1OCCCO2 (stereo not shown) [Synthesis Example 27, 5,6-O-dipalmitoyl-2,3-O-(1,3-propanediyl) ascorbic acid] | ⊚ (95% or more) | ⊚ (95% or more) | ⊚ (95% or more) | ⊚ (95% or more) | Δ | ++ (120%<) | ++ (140%<) | ○ (Total score of 10 panelists is 25 or more) | ○ (Total score of 10 panelists is 25 or more) | Δ | –
CCCCCCCCCCCCCCCC(=O)OCC(O)C1OC(=O)C2=C1OCCCO2 (stereo not shown) [synthesis example 26, 6-O-palmitoyl-2,3-O-(1,3-propanediyl) ascorbic acid] | ⊚ (95% or more) | ⊚ (95% or more) | ⊚ (95% or more) | ○ (85% or more, less than 95%) | Δ | ++ (120%<) | – | ○ (Total score of 10 panelists is 25 or more) | ○ (Total score of 10 panelists is 25 or more) | Δ | –
CC(C)CCCCCCCCCCCCCCC(=O)OCC(O)C1OC(=O)C2=C1OCCO2 (stereo not shown) [synthesis example 31, 6-O-isostearoyl-2,3-O-(1,2-ethanediyl) ascorbic acid] | ⊚ (95% or more) | ⊚ (95% or more) | ⊚ (95% or more) | ⊚ (95% or more) | Δ | ++ (120%<) | – | ○ (Total score of 10 panelists is 25 or more) | ○ (Total score of 10 panelists is 25 or more) | ○ (Total score of 10 panelists is 25 or more) | –
CCCCCCCCCCCCCCCC(=O)OCC(OC(=O)CCCCCCCCCCCCCCC)C1OC(=O)C2=C1OCCCCO2 (stereo not shown) [synthetic example 16, 5,6-O-dipalmitoyl-2,3-O-(1,4-butanediyl) ascorbic acid] | ⊚ (95% or more) | ⊚ (95% or more) | ⊚ (95% or more) | ⊚ (95% or more) | Δ | ++ (120%<) | – | ○ (Total score of 10 panelists is 25 or more) | ○ (Total score of 10 panelists is 25 or more) | ○ (Total score of 10 panelists is 25 or more) | –
CC(C)CCCCCCCCCCCCCCC(=O)OCC(O)C1OC(=O)C2=C1OCCCO2 (stereo not shown) [synthetic example 28, 6-O-isostearoyl-2,3-O-(1,3-propanediyl) ascorbic acid] | ⊚ (95% or more) | ⊚ (95% or more) | ⊚ (95% or more) | ⊚ (95% or more) | Δ | ++ (120%<) | – | ○ (Total score of 10 panelists is 25 or more) | ○ (Total score of 10 panelists is 25 or more) | ○ (Total score of 10 panelists is 25 or more) | –
Bisglyceryl ascorbic acid [reference compound] | – | – | – | – | – | – | – | – | – | – | Residual Rate After 2 weeks ([1]; pH3, stored at 50°C): ⊚; Residual Rate After 4 weeks ([1]; pH3, stored at 50°C): ⊚; Residual Rate After 2 weeks ([1]; pH5, stored at 50°C): ⊚; Residual Rate After 4 weeks ([1]; pH5, stored at 50°C): ⊚; Residual Rate After 2 weeks ([1]; pH7, stored at 50°C): ×; Residual Rate After 4 weeks ([1]; pH7, stored at 50°C): ×; Residual Rate After 2 weeks ([1]; pH8, stored at 50°C): ×; Residual Rate After 4 weeks ([1]; pH8, stored at 50°C): ×; Residual Rate After 2 weeks ([1]; pH9, stored at 50°C): ×; Residual Rate After 4 weeks ([1]; pH9, stored at 50°C): ×; Coloration After 2 weeks [3]: Δ; Odor After 2 weeks [3]: Δ; Coloration After 4 weeks [3]: Δ; Odor After 4 weeks [3]: Δ

More lines, main results first:

Residual Rate After 2 weeks ([5]; pH7, stored at 50°C) | Residual Rate After 4 weeks ([5]; pH7, stored at 50°C) | Residual Rate After 2 weeks ([5]; pH9, stored at 50°C) | Residual Rate After 4 weeks ([5]; pH9, stored at 50°C) | Odor After 4 weeks [6] | Molecule | Hyaluronic acid production-promoting effect [2] | Collagen production-promoting effect [4] | Coloration After 2 weeks [6] | Odor After 2 weeks [6] | Coloration After 4 weeks [6] | other results
⊚ (95% or more) | ⊚ (95% or more) | ⊚ (95% or more) | ⊚ (95% or more) | Δ | CCCC(=O)OCC(OC(=O)CCC)C1OC(=O)C2=C1OCCCO2 (stereo not shown) [synthesis example 21, 5,6-O-dibutanoyl-2,3-O-(1,3-propanediyl) ascorbic acid] | ++ (120%<) | ++ (140%<) | ○ (Total score of 10 panelists is 25 or more) | ○ (Total score of 10 panelists is 25 or more) | ○ (Total score of 10 panelists is 25 or more) | –
⊚ (95% or more) | ⊚ (95% or more) | ⊚ (95% or more) | ⊚ (95% or more) | Δ | CC(C)CCCCCCCCCCCCCCC(=O)OCC(OC(=O)CCCCCCCCCCCCCCC(C)C)C1OC(=O)C2=C1OCCCO2 (stereo not shown) [synthesis example 29, 5,6-O-diisostearoyl-2,3-O-(1,3-propanediyl) ascorbic acid] | + (100-120%) | ++ (140%<) | ○ (Total score of 10 panelists is 25 or more) | ○ (Total score of 10 panelists is 25 or more) | ○ (Total score of 10 panelists is 25 or more) | –
⊚ (95% or more) | ⊚ (95% or more) | ⊚ (95% or more) | ⊚ (95% or more) | Δ | CCCCCCCC(=O)OCC(OC(=O)CCCCCCC)C1OC(=O)C2=C1OCCCCO2 (stereo not shown) [synthetic example 12, 5,6-O-dioctanoyl-2,3-O-(1,4-butanediyl) ascorbic acid] | ++ (120%<) | ++ (140%<) | ○ (Total score of 10 panelists is 25 or more) | ○ (Total score of 10 panelists is 25 or more) | ○ (Total score of 10 panelists is 25 or more) | –
